Source: patent US20230000773A1, “NOVEL HEADGROUP LIPID COMPOUNDS AND COMPOSITIONS FOR INTRACELLULAR DELIVERY OF THERAPEUTIC AGENTS” (ModernaTX, Inc., priority 2019, published 2023)

What was measured:
[1] = Size and polydispersity index of nanoparticles comprising compounds of the disclosure; format: physicochemical; settings: compound:DSPC:cholesterol:PEG 2 50:10:38:2 mol %
Outline: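 LNPs contained test lipid:DSPC:cholesterol:PEG 2 at 50:10:38:2 mol %. Size and polydispersity index were measured by dynamic light scattering.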

[2] = Encapsulation efficiency (% EE), ribogreen; format: physicochemical; settings: nanoparticles, compound:DSPC:cholesterol:PEG 2 50:10:38:2 mol %
Outline: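 Encapsulated RNA fraction determined by fluorescence of free RNA before and after LNP disruption with detergent or solvent. LNPs contained ionizable lipid:DSPC:cholesterol:PEG lipid at 50:10:38:2 mol %.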

[3] = Encapsulation efficiency (% EE), ribostar; format: physicochemical; settings: nanoparticles, compound:DSPC:cholesterol:PEG 2 50:10:38:2 mol %
Description: The efficiency of encapsulation of a therapeutic and/or prophylactic describes the amount of therapeutic and/or prophylactic that is encapsulated or otherwise associated with a lipid nanoparticle (e.g., an empty LNP or a loaded LNP) after preparation, relative to the initial amount provided. The encapsulation efficiency is desirably high (e.g., close to 100%). The encapsulation efficiency may be measured, for example, by comparing the amount of therapeutic and/or prophylactic in a solution containing the lipid nanoparticle (e.g., an empty LNP or a loaded LNP) before and after breaking up the lipid nanoparticle (e.g., an empty LNP or a loaded LNP) with one or more organic solvents or detergents. Fluorescence may be used to measure the amount of free therapeutic and/or prophylactic (e.g., RNA) in a solution. For the lipid nanoparticles (e.g., empty LNPs or loaded LNPs) described herein, the encapsulation efficiency of a therapeutic and/or prophylactic may be at least 50%, for example 50%, 55%, 60%, 65%, 70%, 75%, 80%, 85%, 90%, 91%, 92%, 93%, 94%, 95%, 96%, 97%, 98%, 99%, or 100%. In some embodiments, the encapsulation efficiency may be at least 80%. In certain embodiments, the encapsulation efficiency may be at least 90%. In some embodiments, the encapsulation efficiency of the therapeutic and/or prophylactic agent is between 80% and 100%.
Nanoparticle compositions including a therapeutic and/or prophylactic can be optimized according to the selection of a compound according to Formula (I), (I-1), (A), (A-1), (A-1a), or (A-1b), the selection of additional lipids, the amount of each lipid in the lipid component, and the wt:wt ratio of the lipid component to the therapeutic and/or prophylactic. Nanoparticle compositions including DSPC as a phospholipid, cholesterol as a structural lipid, PEG 2 as a PEG lipid, and a compound according to Formula (I), (I-1), (A), (A-1), (A-1a), or (A-1b) were prepared. The ratios of the lipids were 50:10:38:2 mol % for the lipid according to Formula (I), (I-1), (A), (A-1), (A-1a), or (A-1b):DSPC:cholesterol:PEG 2. Tables 2a, 2b, and 3-5 summarize the characteristics of the formulations.
Table 4 summarizes the surface hydrophobicity of nanoparticles comprising compounds of the disclosure as determined by Generalized Polarization by Laurdan (GPL). Laurdan, a fluorescent aminonaphthalene ketone lipid, was post-inserted into the nanoparticle surface and the fluorescence spectrum of Laurdan was collected to determine the normalized Generalized Polarization (N-GP). Higher N-GP indicates a less polar surface.

[4] = system: serum protein ApoE; experiment: ApoE binding affinity of nanoparticles (bead binding, flow cytometry)
Experimental: The ApoE binding affinity, i.e., the affinity of binding between nanoparticles comprising compounds of the disclosure and the serum protein ApoE, was determined by binding the nanoparticles to beads, then incubating them with known quantities of […]. The quantity of protein bound to the nanoparticle was then determined by flow cytometry.

[5] = system: mRNA; experiment: mRNA integrity in nanoparticles by RP-IP HPLC (UV 260 nm); format: physicochemical
Experimental: Integrity of mRNA comprised in nanoparticles of the disclosure, i.e., the percentages of intact mRNA, mRNA adducts, and mRNA hydrolysis products, […] (Reverse-Phase Ion-Pairing HPLC) using UV detection at 260 nm. Total purity and impurities are calculated as percent peak area.

[6] = Heparin-sepharose binding of nanoparticles
[7] = Surface hydrophobicity by Generalized Polarization by Laurdan (GPL); format: physicochemical; settings: normalized Generalized Polarization by Laurdan; higher N-GP = less polar surface
Outline: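 LNPs contained ionizable lipid:DSPC:cholesterol:PEG lipid at 50:10:38:2 mol %. Laurdan was post-inserted into the particle surface, and its fluorescence spectrum gave normalized generalized polarization (N-GP); higher N-GP means a less polar surface.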

[8] = system: hEPO mRNA; experiment: hEPO expression in CD1-mice after intravenous administration of nanoparticles; format: in vivo; settings: 6 h after intravenous administration, mRNA dose 0.5 mg/kg, N:P 3.4, compound:DSPC:cholesterol:PEG 2 50:10:38:2
Experimental: The expression of hEPO mRNA in CD1-mice was measured 6 h after intravenous administration of nanoparticles comprising a compound of the disclosure, DSPC, cholesterol, and PEG 2 in a ratio of 50:10:38:2. […] Each composition was dosed to 8 animals at an mRNA dose of 0.5 mg/kg.

[9] = Apparent LNP pKa by 2-(p-toluidino)-6-napthalene sulfonic acid (TNS) assay; format: physicochemical; settings: pH at half of maximum fluorescence
[10] = mRNA integrity after 2 weeks at 25° C., percent peak area
[11] = mRNA integrity at t = 0, percent peak area

Row | PDI [1] | Size (nm) [1] [nm] | % EE (ribogreen) [2] [%] | % EE (ribostar) [3] [%] | Median Fluorescence Intensity, PE [4] | Adduct [5, 10] [%] | Hydrolysis Product [5, 10] [%] | Intact [5, 10] [%] | Adduct [5, 11] [%] | Hydrolysis Product [5, 11] [%] | Intact [5, 11] [%] | Relative % Area Bound by LNP [6] [%] | Average N-GP [7] | LogIC50 (pKa) [9] | SMILES | Avg. [hEPO] mIU/mL [8] [mIU/mL]
1 | 0.125 | 70.1 | 91.8 | 59.1 | 112648 | 27.2 | 32.9 | 39.9 | 13.1 | 32.9 | 54.0 | 3.54 | 0.837 | 6.64 | CCCCCCCCC(CC)OC(=O)CCCCCCCN(CCCCCCCC(=O)OC(CCCCCCCC)CCCCCCCC)CCCNS(=O)(=O)CC (stereo not drawn) [Compound 66, Heptadecan-9-yl 8-((3-(ethylsulfonamido)propyl)(8-oxo-8-(undecan-3-yloxy)octyl)amino)octanoate] | 1.57E+06
2 | 0.109 | 64.7 | 90.8 | 50.7 | 147047 | 20.2 | 35.9 | 43.9 | 8.7 | 30.8 | 60.6 | 0 | 0.874 | 6.54 | CCCCCCCCC(CC)OC(=O)CCCCCCCN(CCCCCCCC(=O)OC(CCCCCCCC)CCCCCCCC)CCCNS(=O)(=O)Cc1ccon1 (stereo not drawn) [Compound 71, Heptadecan-9-yl 8-((3-((isoxazol-3-ylmethyl)sulfonamido)propyl)(8-oxo-8-(undecan-3-yloxy)octyl)amino)octanoate] | 1.50E+06
3 | 0.211 | 108.2 | 75.4 | 41.6 | 3133 | 7.9 | 51.4 | 40.8 | 3.8 | 36.4 | 59.8 | 2.90 | 1.001 | 6.87 | CCCCCCCCC(CC)OC(=O)CCCCCCCN(CCCCCCCC(=O)OC(CCCCCCCC)CCCCCCCC)CCCNc1ncccc1NC (stereo not drawn) [Compound 34, Heptadecan-9-yl 8-((3-((3-(methylamino)pyridin-2-yl)amino)propyl)(8-oxo-8-(undecan-3-yloxy)octyl)amino)octanoate] | 8.06E+05
4 | 0.123 | 72.6 | 89.9 | 60.7 | 121247 | 12.7 | 50.1 | 37.2 | 10.3 | 40.2 | 49.5 | 0 | 0.902 | 6.75 | CCCCCCCCC(CC)OC(=O)CCCCCCCN(CCCCCCCC(=O)OC(CCCCCCCC)CCCCCCCC)CCCNS(=O)(=O)C[C@H]1COCCO1 (stereo partly drawn) [Compound 70, Heptadecan-9-yl 8-((3-((((R)-1,4-dioxan-2-yl)methyl)sulfonamido)propyl)(8-oxo-8-(undecan-3-yloxy)octyl)amino)octanoate] | 9.18E+05
